Laboratory results: patent publication US20060009475A1, “Quinazolinone compounds in combined modalities for improved cancer treatment” (priority 2001, published 2006)
“And” between values parts separate entries of the source, which are not always exact repeats. Equal values may be shown once.

Experiments:
[1] = tested on: rat mesangial cells (RMC); assay: Cell cycle analysis of mesangial cells by propidium iodide FACScan; format: cell-based; details: 150 ng/ml halofuginone, 24 hours, 10% FCS
Experimental: Further experiments were conducted to determine whether halofuginone arrests mesangial cell proliferation at a specific phase of the cell cycle.
For this purpose sub confluent RMC's were kept in 10% FCS in the absence or presence of 150 ng/ml halofuginone for 24 hours. The cells were then harvested, stained with propidium iodide and analyzed by FACScan. The percentage of cells progressing into G2/M phase was reduced by halofuginone from 20% to 7%. The percentage of cells in G0/G1 was increased from 38% in the absence of halofuginone to 65% in the presence of halofuginone.

[2] = tested on: radiation-induced fibrosis (leg contraction); assay: Leg contraction model of radiation-induced fibrosis; format: in vivo, mice
Experimental: Mice were injected intraperitoneally once daily with 1-5 μg/mouse of halofuginone, for a period of 4 months.
The right leg only of each animal was radiated with 35Gy or 45Gy. […] Measurements were taken within time periods of 2 to 4 months after radiation.

U266 cells = assay: Cell cycle analysis of multiple myeloma cells by flow cytometry; format: cell-based; details: 48 hours, different concentrations
Experimental: Multiple Myeloma (MM) cell line U266B1 was purchased from ATCC (TIB-196).
Cells (10^6) were incubated for 48 hours with different concentrations of halofuginone. The cells were permeabilized with 70% ethanol in PBS for 30 minutes at 4° C., and then incubated with 0.5 ml of a 50 μg/ml Propidium Iodide solution containing 20 U/ml RnaseA for 30 minutes. Cells were analyzed by flow cytometry.

[3] = tested on: rabbit aortic smooth muscle cells (SMC); assay: [3H]-thymidine incorporation / cell cycle arrest in serum-stimulated smooth muscle cells; format: cell-based
Experimental: Experiments were conducted to determine the specific phase of the cell cycle in which SMC treated with halofuginone were arrested.
As determined by [^3H]-thymidine incorporation, addition of 10% FBS to growth-arrested, quiescent SMC promotes entry of the cells to S phase after a G1 period of 16 hours. Maximal DNA synthesis was seen 20 hours after serum-stimulation (FIG. 1).
It was next determined whether halofuginone arrested proliferation at a specific stage in the cell cycle. For these experiments, quiescent SMCs were kept in 10% FBS plus 10^−7 M halofuginone for 24 hours. The cultures were then washed and placed in 10% FBS with [^3H]-thymidine and without halofuginone. At various times after halofuginone removal, the cells were harvested and thymidine incorporation was determined. When halofuginone-treated cells were released from growth-arrest, there was a lag of 4-6 hours before initiation of DNA synthesis, which peaked by 10 hours (FIG. 1).

[4] = tested on: pancreatic cancer cell lines 3602 Xrt and 3602 Zyrd/Xrt; assay: Radiation survival of pancreatic cancer cell lines pre-treated with halofuginone; format: cell-based, human; details: 250 nM halofuginone for 24 hr, then radiated with 0-8 Gy
Experimental: Two pancreatic cancer cell lines: 3602 Xrt and 3602 Zyrd/Xrt were incubated with or without 250 nM halofuginone for 24 hr, than radiated with 0-8 Gy. Survival fraction of the cell was determined.

[5] = tested on: human T98G glioblastoma (ic tumor); assay: Human T98G glioblastoma implanted intracranially, survival (increase-in-lifespan); details: BCNU 15 mg/kg ip, days 7, 9, 11, alone
Experimental: Halofuginone was tested in the human T98G glioblastoma xenograft implanted subcutaneously or intracranially. Mice were implanted with the human T98G glioblastoma tumor cells subcutaneously in a thigh or intracranially.
Halofuginone was administered orally by gavage at dose levels of 0.1,0.2, and 0.5 mg/kg/day, once per day, on days 4 through 34 days post tumor implantation. Each group contained 5 mice.
The endpoint for the subcutaneous tumor was tumor growth delay while the endpoint for the intracranial tumor was increase-in-lifespan (survival).

[6] = tested on: human T98G glioblastoma xenograft (sc tumor); format: in vivo, mice; details: BCNU 15 mg/kg ip, days 7, 9, 11, alone
Text: Each group contained 5 mice.

[7] = cited from earlier work
[8] = 24 hours 10^-7 M halofuginone + 10% FBS, then washed

For `O=C(CC1NCCC[C@H]1O)Cn1cnc2cc(Br)c(Cl)cc2c1=O` (stereo in doubt) [halofuginone, 7-bromo-6-chloro-3-[3-(3-hydroxy-2-piperidinyl)-2-oxopropyl]-4(3H)-quinazolinone], the “percentage of cells in G0/G1” value [1] was 65%, the “percentage of cells progressing into G2/M phase” value [1] was 7% and the “leg length difference between the right and left leg” value ([2]; 1-5 μg/mouse ip once daily, 35Gy or 45Gy, 2 and 4 months post radiation) was “dramatic decrease”. For the same compound, the “condition of irradiated leg (stiffness, skin)” value ([2]; versus mice that did not receive halofuginone) was “definitely less stiff, and the skin was less dry”, the “number of cells arrested in G1 phase” value (U266 cells) was “elevation” and the “[3H]-thymidine incorporation” value ([3]; 10^-7 M halofuginone added with 10% FBS to quiescent SMC) was “only low levels”. The “lag before initiation of DNA synthesis after release from growth-arrest” value [3, 8] was 4 to 6 h, the “time of peak DNA synthesis after halofuginone removal” value [3, 8] was 10 h and the “cell cycle phase of arrest” value ([3]; continual presence of halofuginone) was “reversibly arrest at late G1 phase”. The “decrease in the survival fraction” value [4] was “approximately 50%”.
For `O=NN(CCCl)C(=O)NCCCl` [BCNU, 1,3-bis(2-chloroethyl)-1-nitrosourea], the “SURVIVAL Days (ic tumor)” value [5] was 97 ± 21 days and the “TUMOR GROWTH DELAY Days (sc tumor)” value [6] was 3.8 days and 3.9 ± 0.4 days.
For Bleomycin, the “death of patients associated with pulmonary fibrosis” value [7] is given as 1% to 2 and the “treated patients with induced pulmonary fibrosis” value [7] is given as 10% to 30.
